Measurements taken from patent US8716292B2, “Riminophenazines with 2-(heteroaryl)amino substituents and their anti-microbial activity” (priority 2010, dated 2014).
≈ marks a conversion by molar mass, not a printed value.

What was measured:
[1] = system: Mycobacterium tuberculosis H37Rv strains; experiment: In vitro assay for antimicrobial susceptibility (microplate Alamar blue MIC); format: cell-based; conditions: in vitro, Mycobacterium tuberculosis H37Rv strains; for MIC: Mycobacterium tuberculosis, H37RV, read-out: MIC (μg/mL) against H37Rv
[2] = system: H37Rv; experiment: In vivo testing: mice infected intravenously with H37Rv, lung tissue CFU counts; design: species or system Male BALB/c mice; conditions: thirty days postinfection; for Log CFU (TBI treated): 20 mg/kg, gavage 5 times weekly, lung tissue CFU; for log reduction at 20 mg/kg: Mycobacterium tuberculosis, H37RV, iv, 720 h, versus untreated control, lung tissue, read-out: Log CFU Reduction (TBI treated)
Procedure: Male BALB/c mice (18˜20 g) were infected intravenously with 0.2 ml portions containing 1×10^5 CFU of H37Rv. One day after the infection, four mice were sacrificed and the numbers of CFU in the spleens and lungs were determined. Organs were removed and homogenized in Middlebrook 7H9 broth. To enumerate CFU, appropriate dilutions of the homogenates were plated onto Middlebrook 7H10 agar and colonies were counted after 3 to 4 weeks of incubation at 37° C. The remaining mice were allocated either to untreated groups or to various drug treated groups (six mice per group). The dose of every test compound was 20 mg/kg. The positive control groups were treated by isoniazid and clofazimine. The test compounds and clofazimine were administered by gavage 5 times weekly. Untreated mice were administered by gavage with CMC. Thirty days postinfection, both untreated and treated mice were sacrificed and lung tissue CFU counts were determined. The significance of the CFU count and organ weight difference was assessed by a two-tailed Student t test. P≦0.01 was considered significant.

Cc1ccc(Nc2cc3nc4ccccc4n(-c4ccc(Cl)cc4)c-3c/c2=N\C2CCOCC2)cn1 [TBI-449, 5-(4-Chlorophenyl)-3-(4-tetrahydropyranyl)imino-2-(6-methyl-3-pyridyl)amino-3,5-dihydrophenazine]
MIC [1]: 0.03 µg/mL (≈ 0.0605 µM) | Log CFU (TBI treated) [2]: 3.87 | log reduction at 20 mg/kg [2]: 4.66

COc1ncccc1Nc1cc2nc3ccccc3n(-c3ccc(F)cc3)c-2c/c1=N\C(C)C [TBI-1004, 5-(4-Fluorophenyl)-3-(1-methylethyl)imino-2-(2-methoxy-3-pyridyl)amino-3,5-dihydrophenazine]
Log CFU (TBI treated) [2]: 4.28 | log reduction at 20 mg/kg [2]: 4.25

COc1ncccc1Nc1cc2nc3ccccc3n(-c3ccc(Br)cc3)c-2c/c1=N\C1CC1 [TBI-519, 5-(4-Bromophenyl)-3-cyclopropylimino-2-(2-methoxy-3-pyridyl)amino-3,5-dihydrophenazine]
melting point: 217 to 218 °C | MIC [1]: 0.015 µg/mL (≈ 0.0293 µM)

COC1CCC(/N=c2\cc3n(-c4ccc(Cl)cc4)c4ccccc4nc-3cc2Nc2ccc(C)nc2)CC1 (stereo not drawn) [TBI-450, 5-(4-Chlorophenyl)-3-(4-methoxycyclohexyl)imino-2-(6-methyl-3-pyridyl)amino-3,5-dihydrophenazine]
MIC [1]: 0.016 µg/mL (≈ 0.0305 µM) | Log CFU (TBI treated) [2]: 3.64 | log reduction at 20 mg/kg [2]: 4.89

COc1ncccc1Nc1cc2nc3ccccc3n(-c3ccc(F)cc3)c-2c/c1=N\C1CC1 [TBI-1010, 5-(4-Fluorophenyl)-3-cyclopropylimino-2-(2-methoxy-3-pyridyl)amino-3,5-dihydrophenazine]
MIC [1]: 0.011 µg/mL (≈ 0.0244 µM) | Log CFU (TBI treated) [2]: 4.86 | log reduction at 20 mg/kg [2]: 3.67

CC(C)CN1CCC(/N=c2\cc3n(-c4ccc(Cl)cc4)c4ccccc4nc-3cc2Nc2cccnc2)CC1 [TBI-435, 5-(4-Chlorophenyl)-3-(N-isobutyl-4-piperidyl)imino-2-(3-pyridyl)amino-3,5-dihydrophenazine]
melting point: 209 to 210 °C | MIC [1]: 0.25 µg/mL (≈ 0.465 µM)

COc1ncccc1Nc1cc2nc3ccccc3n(-c3ccc(OC(F)(F)F)cc3)c-2c/c1=N\C1CCC(OC)CC1 (stereo not drawn) [TBI-166, 5-(4-Trifluoromethoxyphenyl)-(4-methoxycyclohexyl)imino-2-(2-methoxy-3-pyridyl)amino-3,5-dihydrophenazine]
MIC [1]: 0.016 µg/mL (≈ 0.0271 µM) | Log CFU (TBI treated) [2]: 4.66 | log reduction at 20 mg/kg [2]: 3.87

CC(C)/N=c1\cc2n(-c3ccc(C(F)(F)F)cc3)c3ccccc3nc-2cc1Nc1cccnc1 [TBI-678, 5-(4-Trifluoromethylphenyl)-3-(1-methylethyl)imino-2-(3-pyridyl)amino-3,5-dihydrophenazine]
MIC [1]: 0.03 µg/mL (≈ 0.0634 µM) | Log CFU (TBI treated) [2]: 5.82 | log reduction at 20 mg/kg [2]: 3

COC1CCC(/N=c2\cc3n(-c4ccc(C(F)(F)F)cc4)c4ccccc4nc-3cc2Nc2cccnc2)CC1 (stereo not drawn) [TBI-688, 5-(4-Trifluoromethylphenyl)-3-(4-methoxycyclohexyl)imino-2-(3-pyridyl)amino-3,5-dihydrophenazine]
MIC [1]: 0.03 µg/mL (≈ 0.0552 µM) | Log CFU (TBI treated) [2]: 5.99 | log reduction at 20 mg/kg [2]: 2.83

CN1CCC(C/N=c2\cc3n(-c4ccc(Cl)cc4)c4ccccc4nc-3cc2Nc2cccnc2)CC1 [TBI-428, 5-(4-Chlorophenyl)-3-(N-methyl-4-piperidylmethyl)imino-2-(3-pyridyl)amino-3,5-dihydrophenazine]
melting point: 188 to 190 °C | MIC [1]: 0.25 µg/mL (≈ 0.491 µM)

Clc1ccc(-n2c3c/c(=N\C4CCOCC4)c(Nc4cccnc4)cc-3nc3ccccc32)cc1 [TBI-434, 5-(4-Chlorophenyl)-3-(4-tetrahydropyranyl)imino-2-(3-pyridyl)amino-3,5-dihydrophenazine]
melting point: 215 to 217 °C | MIC [1]: 0.03 µg/mL (≈ 0.0622 µM)

Clc1ccc(-n2c3c/c(=N\C4CCN(C5CCCC5)CC4)c(Nc4cccnc4)cc-3nc3ccccc32)cc1 [TBI-437, 5-(4-Chlorophenyl)-3-(N-cyclopentyl-4-piperidyl)imino-2-(3-pyridyl)amino-3,5-dihydrophenazine]
melting point: 170 to 172 °C | MIC [1]: 0.125 µg/mL (≈ 0.228 µM)

CN1CCC(/N=c2\cc3n(-c4ccc(Cl)cc4)c4ccccc4nc-3cc2Nc2cccnc2)CC1 [TBI-427, 5-(4-Chlorophenyl)-3-(N-methyl-4-piperidyl)imino-2-(3-pyridyl)amino-3,5-dihydrophenazine]
melting point: 198 to 200 °C | MIC [1]: 0.125 µg/mL (≈ 0.253 µM)

COC1CCC(/N=c2\cc3n(-c4ccc(Cl)cc4)c4ccccc4nc-3cc2Nc2cccnc2)CC1 (stereo not drawn) [TBI-436, 5-(4-Chlorophenyl)-3-(4-methoxycyclohexyl)imino-2-(3-pyridyl)amino-3,5-dihydrophenazine]
melting point: 228 to 230 °C | MIC [1]: 0.03 µg/mL (≈ 0.0588 µM)

COc1ncccc1Nc1cc2nc3ccccc3n(-c3ccc(Cl)cc3)c-2c/c1=N\C1CCOCC1 [TBI-443, 5-(4-chlorophenyl)-3-(4-tetrahydropyranyl)imino-2-(2-methoxy-3-pyridyl)amino-3,5-dihydrophenazine]
MIC [1]: 0.016 µg/mL (≈ 0.0312 µM) | Log CFU (TBI treated) [2]: 5.13 | log reduction at 20 mg/kg [2]: 3.4

COc1ncccc1Nc1cc2nc3ccccc3n(-c3ccc(Cl)cc3)c-2c/c1=N\C1CCC(OC)CC1 (stereo not drawn) [TBI-444, 5-(4-Chlorophenyl)-3-(4-methoxycyclohexyl)imino-2-(2-methoxy-3-pyridyl)amino-3,5-dihydrophenazine]
MIC [1]: 0.016 µg/mL (≈ 0.0296 µM) | Log CFU (TBI treated) [2]: 4.71 | log reduction at 20 mg/kg [2]: 3.82

COc1ncccc1Nc1cc2nc3ccccc3n(-c3ccc(F)cc3)c-2c/c1=N\C1CCC(OC)CC1 (stereo not drawn) [TBI-1002, 5-(4-Fluorophenyl)-3-(4-methoxycyclohexyl)imino-2-(2-methoxy-3-pyridyl)amino-3,5-dihydrophenazine]
MIC [1]: 0.016 µg/mL (≈ 0.0306 µM) | Log CFU (TBI treated) [2]: 4.85 | log reduction at 20 mg/kg [2]: 3.68

CC(C)/N=c1\cc2n(-c3ccc(Cl)cc3)c3ccccc3nc-2cc1Nc1cccnc1 [TBI-416, 5-(4-chlorophenyl)-3-(1-methylethyl)imino-2-(3-pyridyl)amino-3,5-dihydrophenazine]
MIC [1]: 0.03 µg/mL (≈ 0.0682 µM) | Log CFU (TBI treated) [2]: 3.83 | log reduction at 20 mg/kg [2]: 4.7

FC(F)(F)Oc1ccc(-n2c3c/c(=N\C4CCOCC4)c(Nc4cccnc4)cc-3nc3ccccc32)cc1 [TBI-161, 5-(4-Trifluoromethoxyphenyl)-3-(4-tetrahydropyranyl)imino-2-(3-pyridyl)amino-3,5-dihydrophenazine]
MIC [1]: 0.03 µg/mL (≈ 0.0564 µM) | Log CFU (TBI treated) [2]: 6.05 | log reduction at 20 mg/kg [2]: 2.77

COC1CCC(/N=c2\cc3n(-c4ccc(Cl)c(Cl)c4)c4ccccc4nc-3cc2Nc2ccc(C)nc2)CC1 (stereo not drawn) [TBI-355, 5-(3,4-Dichlorophenyl)-3-(4-methoxycyclohexyl)imino-2-(6-methyl-3-pyridyl)amino-3,5-dihydrophenazine]
MIC [1]: 0.09 µg/mL (≈ 0.161 µM)

COc1ncccc1Nc1cc2nc3ccccc3n(-c3ccc(Br)cc3)c-2c/c1=N\C1CCC1 [TBI-520]
MIC [1]: 0.043 µg/mL (≈ 0.0817 µM)

COc1ncccc1Nc1cc2nc3ccccc3n(-c3ccc(C)cc3)c-2c/c1=N\CCN1CCOCC1 [TBI-311, 5-(4-Methylphenyl)-3-(2-morpholinoethyl)imino-2-(2-methoxy-3-pyridyl)amino-3,5-dihydrophenazine]
MIC [1]: 0.125 µg/mL (≈ 0.24 µM)

Cc1ccc(Nc2cc3nc4ccccc4n(-c4ccc(F)cc4)c-3c/c2=N\C2CC2)cn1 [TBI-908, 5-(4-Fluorophenyl)-3-cyclopropylimino-2-(6-methyl-3-pyridyl)amino-3,5-dihydrophenazine]
MIC [1]: 0.03 µg/mL (≈ 0.0689 µM)

Clc1ccccc1-n1c2c/c(=N\C3CC3)c(Nc3cccnc3)cc-2nc2ccccc21 [TBI-892, 5-(2-Chlorophenyl)-3-cyclopropylimino-2-(3-pyridyl)amino-3,5-dihydrophenazine]
MIC [1]: 0.028 µg/mL (≈ 0.0639 µM)

COc1ncccc1Nc1cc2nc3ccccc3n(-c3ccc(F)c(F)c3)c-2c/c1=N\C1CCOCC1 [TBI-1428, 5-(3,4-Difluorophenyl)-3-(4-tetrahydropyranyl)imino-2-(2-methoxy-3-pyridyl)amino-3,5-dihydrophenazine]
MIC (μg/mL) against H37Rv [1]: 0.054 µg/mL (≈ 0.105 µM)

COc1ncccc1Nc1cc2nc3ccccc3n(-c3ccc(Cl)cc3)c-2c/c1=N\C1CCCCC1 [TBI-451]
MIC [1]: 0.057 µg/mL (≈ 0.112 µM)

COCC(COC)/N=c1\cc2n(-c3cccc(Cl)c3)c3ccccc3nc-2cc1Nc1ccc(C)nc1 [TBI-80C, 5-(3-Chlorophenyl)-3-(1,3-dimethoxyisopropyl)imino-2-(6-methyl-3-pyridyl)amino-3,5-dihydrophenazine]
MIC [1]: 0.327 µg/mL (≈ 0.636 µM)

Cc1cncc(Nc2cc3nc4ccccc4n(-c4ccc(C(F)(F)F)cc4)c-3c/c2=N\C2CCOCC2)c1 [TBI-723, 5-(4-Trifluoromethylphenyl)-3-(4-tetrahydropyranyl)imino-2-(5-methyl-3-pyridyl)amino-3,5-dihydrophenazine]
MIC [1]: 0.041 µg/mL (≈ 0.0774 µM)

COC1CCC(/N=c2\cc3n(-c4ccc(C(F)(F)F)cc4)c4ccccc4nc-3cc2Nc2ccc(C)nc2)CC1 (stereo not drawn) [TBI-695, 5-(4-Trifluoromethylphenyl)-3-(4-methoxycyclohexyl)imino-2-(6-methyl-3-pyridyl)amino-3,5-dihydrophenazine]
MIC [1]: 0.016 µg/mL (≈ 0.0287 µM)

COC1CCC(/N=c2\cc3n(-c4ccc(F)cc4)c4ccccc4nc-3cc2Nc2ccc(C)nc2)CC1 (stereo not drawn) [TBI-1001, 5-(4-Fluorophenyl)-3-(4-methoxycyclohexyl)imino-2-(6-methyl-3-pyridyl)amino-3,5-dihydrophenazine]
MIC [1]: 0.06 µg/mL (≈ 0.118 µM)
